Experimental data as given in patent US20070218189A1, “Reduction inhibitory agent for active oxygen eliminating-activity” (KABUSHIKI KAISHA HAYASHIBARA SEIBUTSU KAGAKU KENYUJO, priority 2001, published 2007).

Legend:
Type in all cases: biochemical
[1] = test system: superoxide, formed in a xanthine-xanthine oxidase system; assay: Active oxygen eliminating activity of powdery carrot compositions with saccharides before and after storage, nitro blue tetrazolium (NBT) test (Experiment 3)
Protocol: (§1) Fresh raw carrots were disrupted by a mixer, and saccharides were respectively added to the mixture and dissolved therein to give a concentration of 10%, d.s.b. The solutions were dried under a reduced pressure at 40° C. for two days, dried in vacuo at the same temperature for 24 hours, and pulverized by a mixer into powdery carrot compositions. […] An about 100 g each of the compositions was placed and sealed in a 500-ml polystyrene container, and stored at 40° C. for seven days. The active oxygen eliminating activities of the compositions before and after storage were compared with each other. The active oxygen eliminating activity was assayed by the nitro blue tetrazolium (NBT) test by Toshio IMANARI et al. in Igakuno Ayumi, Vol. 101, pp. 496-497 (1977), and the level of superoxide, formed in a xanthine-xanthine oxidase system, was assayed by quantifying calorimetrically the content of formazan formed by reducing NBT. As a control, refined water was used as a test solution. One unit activity of active oxygen eliminating activity was defined as that inhibited 50% formazan formation as compared with the control. […] Thus cyclotetrasaccharide is preferable as an effective ingredient for a reduction inhibitory agent for active oxygen eliminating activity.

[2] = test system: superoxide, formed in a hypoxanthine-xanthine oxidase system; assay: Active oxygen eliminating activity of powdery carrot compositions with saccharides before and after storage, electron spin resonance (ESR) test (Experiment 4)
Protocol: Fresh raw carrots were disrupted as Experiment 3, and saccharides were respectively added to the mixture and dissolved therein to give a concentration of 10%, d.s.b. The solutions were dried under a reduced pressure at 40° C. for one day, dried in vacuo at the same temperature for 17 hours, and pulverized by a mixer into powdery carrot compositions. […] About 100 g each of the compositions was placed and sealed in a 500-ml polystyrene container, and stored at 40° C. for seven or fourteen days. The active oxygen eliminating activities of the compositions before and after storage were compared with each other. The active oxygen eliminating activity was assayed by the electron spin resonance (ESR) test by Toshihiko OZAWA in BUNSEKI, Vol. 2, pp. 68-74 (2000), and the level of superoxide, formed in a hypoxanthine-xanthine oxidase system, was assayed by the spin-trapping with 5,5-dimethyl-1-pyrroline-N-oxide in ESR.

[3] = test system: superoxide, formed in a xanthine-xanthine oxidase system; assay: Influence of cyclotetrasaccharide concentration on active oxygen eliminating activity of powdery carrot compositions, NBT test (Experiment 5); details: for Activity (unit/g) After storage / Percentage of residual activity (%): 40° C. seven days
Protocol: as §1
Similarly as in Experiment 3, cyclotetrasaccharide was respectively mixed with and dissolved in disrupted carrots to give concentrations of 0-20%, d.s.b. The resulting mixtures were dried in vacuo at 40° C. for 24 hours, and pulverized into powdery carrot compositions. Similarly as in Experiment 3, each powdery composition was placed and sealed in a polystyrene container, and stored at 40° C. for seven days for evaluating the reduction inhibitory activity for active oxygen activity. The active oxygen eliminating activity of one gram each of powdery compositions before and after storage was measured by the method in Experiment 3.

[4] = test system: superoxide, formed in a xanthine-xanthine oxidase system; assay: Active oxygen eliminating activity of powdery vegetable compositions with or without cyclotetrasaccharide before and after storage (Experiment 6); details: carrot, onion, Japanese radish, cabbage, spinach, cucumber, pumpkin; in words
active oxygen = assay: Active oxygen eliminating activity of superoxide dismutase and antioxidants in cyclotetrasaccharide solution or water before and after storage (Experiment 7); details: 30% (w/v) cyclotetrasaccharide solution; superoxide dismutase, α-glucosyl hesperidin, α-glucosyl rutin, gallic acid, catechin; in words
Protocol: In one milliliter of 30% (w/v) cyclotetrasaccharide solution, which is prepared by using cyclotetrasaccharide obtained in Experiment 2, was dissolved five micrograms (μ g) of superoxide dismutase from a horseradish commercialized by Sigma Chemical Co., St. Louis, USA, 10 mg of α-glucosyl hesperidin commercialized by Hayashibara Biochemical Laboratories, Inc., Okayama Japan, 10 mg of α-glucosyl rutin commercialized by Hayashibara Biochemical Laboratories, Inc., Okayama, Japan, 250 μg of gallic acid commercialized by Wako Pure Chemical Industries, Ltd., Tokyo, Japan, or 50 μg of catechin to obtain a liquid composition. Each of the compositions was placed in a glass test tube, sealed with a rubber cap, and stored under a dark condition. As a control, water was used in place of the cyclotetrasaccharide solution.

[5] = powdery carrot composition, saccharide added at 10% d.s.b., stored at 40° C. for seven days
[6] = 0.1% cyclotetrasaccharide added to carrot (content 1.0% d.s.b.)
[7] = 0.5% cyclotetrasaccharide added to carrot (content 4.9% d.s.b.)
[8] = 1.0% cyclotetrasaccharide added to carrot (content 9.4% d.s.b.)
[9] = 2.5% cyclotetrasaccharide added to carrot (content 20.7% d.s.b.)
[10] = 5.0% cyclotetrasaccharide added to carrot (content 34.2% d.s.b.)
[11] = 10.0% cyclotetrasaccharide added to carrot (content 51.1% d.s.b.)
[12] = 20.0% cyclotetrasaccharide added to carrot (content 67.6% d.s.b.)

Activity (unit/g) After storage [1, 5]: 390 unit/g | Percentage of residual activity (%) [1, 5]: 66% | Activity (unit/g) Before storage ([1]; powdery carrot composition, saccharide added to disrupted carrots at 10% d.s.b., before storage): 590 unit/g | residual percentage / reduction inhibitory activity for active oxygen eliminating activity among the saccharides tested ([1]; powdery carrot compositions, 40° C. seven days, in words): highest residual percentage | Activity (unit/g) Before storage ([2]; powdery carrot composition, saccharide added at 10% d.s.b., before storage): 186 unit/g | Activity (unit/g) After two weeks storage ([2]; powdery carrot composition, stored at 40° C. for fourteen days): 66 unit/g | percentage of residual activity After two weeks storage ([2]; powdery carrot composition, stored at 40° C. for fourteen days, numerals in parentheses): 36% | Activity (unit/g) After one week storage ([2]; powdery carrot composition, stored at 40° C. for seven days): 88 unit/g | percentage of residual activity After one week storage ([2]; powdery carrot composition, stored at 40° C. for seven days, numerals in parentheses): 47% | residual percentage for active oxygen eliminating activity among the saccharides tested ([2]; powdery carrot compositions, in words): highest residual percentage | Activity (unit/g) After storage [3, 6]: 390 unit/g | Percentage of residual activity (%) [3, 6]: 42% | Activity (unit/g) Before storage [3, 6]: 930 unit/g | Activity (unit/g) After storage [3, 7]: 470 unit/g | Percentage of residual activity (%) [3, 7]: 57% | Activity (unit/g) Before storage [3, 7]: 820 unit/g | Activity (unit/g) After storage [3, 8]: 450 unit/g | Percentage of residual activity (%) [3, 8]: 61% | Activity (unit/g) Before storage [3, 8]: 740 unit/g | Activity (unit/g) After storage [3, 9]: 460 unit/g | Percentage of residual activity (%) [3, 9]: 66% | Activity (unit/g) Before storage [3, 9]: 700 unit/g | Activity (unit/g) After storage [3, 10]: 340 unit/g | Percentage of residual activity (%) [3, 10]: 62% | Activity (unit/g) Before storage [3, 10]: 550 unit/g | Activity (unit/g) After storage [3, 11]: 290 unit/g | Percentage of residual activity (%) [3, 11]: 69% | Activity (unit/g) Before storage [3, 11]: 420 unit/g | Activity (unit/g) After storage [3, 12]: 280 unit/g | Percentage of residual activity (%) [3, 12]: 64% | Activity (unit/g) Before storage [3, 12]: 390 unit/g | reduction inhibitory activity for active oxygen eliminating activity by incorporating cyclotetrasaccharide [4]: observed in many vegetables
Compound: OCC1OC2OCC3O[C@H](O[C@H]4C(O)C(CO)OC(OCC5O[C@H](O[C@@H](C1O)C2O)C(O)C(O)[C@@H]5O)C4O)C(O)C(O)[C@@H]3O (stereo partly drawn) [Cyclotetrasaccharide, cyclo{→6)-α-D-glucopyranosyl-(1→3)-α-D-glucopyranosyl-(1→6)-α-D-glucopyranosyl-(1→3)-α-D-glucopyranosyl-(1→}]
reducing inhibitory activity for active oxygen eliminating activity of plant antioxidants (active oxygen): effective reducing inhibitory activity
